According to patent publication US20240217966A1, “PHARMACEUTICAL COMPOSITION CONTAINING GLP-1 RECEPTOR AGONIST HAVING FUSED RING” (Shionogi & Co., Ltd., priority 2021, published 2024):

Target: T1, Human GLP-1 receptor (Homo sapiens, UniProt P43220)
T1 construct: expressed in transfected cells
Test: Measurement of GLP-1 receptor agonist activity (cAMP assay)
Format: cell-based
Conditions: for Emax: CHO-K1, hGLP-1R/CHO-K1 cells, cAMP, 100% = human GLP-1 (7-36) at 2 nM, 0% = DMSO only, read-out: Emax(%); for EC50: hGLP-1R/CHO-K1 cells, cAMP increase, 37° C. 1 hour
Description: Test Example 1: (Measurement of GLP-1 Receptor Agonist Activity)
Human GLP-1 receptor stably expressing cells (hGLP-1R/CHO-K1 cells) are cultured in an α-MEM medium (Sigma) containing 10% FBS (Hyclone), 2% GlutaMAX (Gibco), 1% G418 (Nacalai Tesque), and 1% Penicillin-Streptomycin Mixed Solution (Sigma) at 37° C. under 5% CO2 conditions, and recovered by treating a 10 fold diluted 5.0 g/l-trypsin/5.3 mmol/l-EDTA solution (Nacalai Tesque) and cryopreserved.
A DMSO solution containing the compound of the present invention or human GLP-1 (7-36) (Phoenix Pharmaceuticals) is dispensed into a 384-well microplate (Greiner) at 62.5 nL/well, and in addition, 400 μM Forskolin (Nacalai Tesque) is dispensed therein at 7.5 nL/well. Subsequently, the frozen GLP-1 R/CHO-K1 cells are thawed in a thermostatic bath at 37° C., suspended in HBSS buffer (GIBCO) containing 0.1% BSA (Sigma), 20 mM HEPES (GIBCO), 0.1 mM IBMX (Sigma), and 0.2 mM RO20-1724 (Calbiochem) at 2×10^4 cells/mL, and the cell suspension is added at 6 μL/well. The solution was incubated at 37° C. for 1 hour and intracellular cAMP concentration is measured using cAMP Gs dynamic kit (Cisbio) according to the protocol attached to the product. Specifically, cAMP-d2 and Anti-cAMP-Cryptate are each added in an amount of 3 μL/well, the mixture is incubated at room temperature for 1 hour, and time-resolved fluorescence is measured using PHERAstar (BMG Labtech).
The dilution concentration or the dilution solvent are changed as necessary.
The compounds of the present invention were tested essentially as described above.

T1 sequence (P43220 24-463): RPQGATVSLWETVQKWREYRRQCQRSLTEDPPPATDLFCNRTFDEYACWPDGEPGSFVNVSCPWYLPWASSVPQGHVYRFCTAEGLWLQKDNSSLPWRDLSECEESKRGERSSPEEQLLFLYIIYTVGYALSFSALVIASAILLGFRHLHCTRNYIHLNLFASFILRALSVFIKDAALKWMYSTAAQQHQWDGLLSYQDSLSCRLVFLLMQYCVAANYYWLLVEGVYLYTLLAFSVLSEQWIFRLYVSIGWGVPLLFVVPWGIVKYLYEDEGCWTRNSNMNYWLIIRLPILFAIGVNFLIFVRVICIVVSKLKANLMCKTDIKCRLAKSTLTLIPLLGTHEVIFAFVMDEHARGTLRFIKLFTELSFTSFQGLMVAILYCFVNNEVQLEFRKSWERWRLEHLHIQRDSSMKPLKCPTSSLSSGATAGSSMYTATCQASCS

O=C(O)c1cc(Cl)c2nc(CN3CCc4cc(C(F)(F)F)c(OCc5ccc(Cl)cc5F)cc4C3)n(C[C@@H]3CCO3)c2c1 [Compound I-061]
Emax: 113% | EC50: 1.56 nM

O=C(O)c1ccc2nc(CN3CCc4nc(C(F)(F)F)c(OCc5ccc(Cl)cc5F)cc4C3)n(C[C@@H]3CCO3)c2c1 [Compound I-062]
Emax: 98.3% | EC50: 11.6 nM

O=C(O)c1ccc2nc(CN3CCc4cc(C(F)(F)F)c(OCc5ccc(Cl)cc5F)cc4C3)n(CCOC(F)F)c2c1 [Compound I-063]
Emax: 128% | EC50: 98.1 nM

O=C(O)c1ccc2nc(CN3CCc4cc(C(F)(F)F)c(OCc5cc(F)c(Cl)cc5F)cc4C3)n(C[C@@H]3CCO3)c2c1 [Compound I-064]
Emax: 102% | EC50: 5.74 nM

Fc1cc(Cl)ccc1COc1cc2c(cc1C(F)(F)F)CCN(Cc1nc3ccc(-c4nnn[nH]4)cc3n1C[C@@H]1CCO1)C2 [Compound I-065]
Emax: 116% | EC50: 9.82 nM

O=C(O)c1ccc2nc(CN3CCc4cc(C(F)(F)F)c(OCc5ccc(Cl)cn5)cc4C3)n(C[C@@H]3CCO3)c2c1 [Compound I-067]
Emax: 130% | EC50: 3.33 nM

O=C(O)c1ccc2nc(CN3CCc4cc(C(F)(F)F)c(OCc5ncc(Cl)cc5F)cc4C3)n(C[C@@H]3CCO3)c2c1 [Compound I-068]
Emax: 114% | EC50: 3.54 nM

Cn1ccc(COc2cc3c(cc2C(F)(F)F)CCN(Cc2nc4ccc(C(=O)O)cc4n2C[C@@H]2CCO2)C3)n1 [Compound I-069]
Emax: 116% | EC50: 7.28 nM

Cc1cc(COc2cc3c(cc2C(F)(F)F)CCN(Cc2nc4ccc(C(=O)O)cc4n2C[C@@H]2CCO2)C3)no1 [Compound I-070]
Emax: 119% | EC50: 23.4 nM

Cn1cc(COc2cc3c(cc2C(F)(F)F)CCN(Cc2nc4ccc(C(=O)O)cc4n2C[C@@H]2CCO2)C3)cn1 [Compound I-071]
Emax: 114% | EC50: 63.9 nM

Cn1nnc2cc(COc3cc4c(cc3C(F)(F)F)CCN(Cc3nc5ccc(C(=O)O)cc5n3C[C@@H]3CCO3)C4)ccc21 [Compound I-072]
Emax: 127% | EC50: 12.6 nM

O=C(O)c1ccc2nc(CN3CCc4cc(C(F)(F)F)c(OCc5ccc6c(c5)CCC6)cc4C3)n(C[C@@H]3CCO3)c2c1 [Compound I-074]
Emax: 100% | EC50: 40 nM

O=C(O)c1ccc2nc(Cc3ccc4nc(C(F)(F)F)c(OCc5ccc(Cl)cc5F)nc4c3)n(C[C@@H]3CCO3)c2c1 [Compound I-076]
Emax: 108% | EC50: 1.59 nM

O=C(O)c1ccc2nc(CN3CCc4cc(C(F)(F)F)c(OCc5ccc(Cl)cc5F)cc4C3)n(C[C@@H]3CCO3)c2c1Cl [Compound I-078]
Emax: 112% | EC50: 28.6 nM

O=C(O)c1ccc2nc(CN3CCc4cc(C(F)(F)F)c(OCc5ccc(F)cc5)cc4C3)n(C[C@@H]3CCO3)c2c1 [Compound I-079]
Emax: 103% | EC50: 6.8 nM

O=C(O)c1ccc2nc(CN3CCc4cc(C(F)(F)F)c(OCc5ccc(Cl)cc5)cc4C3)n(C[C@@H]3CCO3)c2c1 [Compound I-080]
Emax: 103% | EC50: 3.89 nM

O=C(O)c1ccc2nc(CN3CCc4cc(C(F)(F)F)c(OCc5ccc(C(F)F)cc5)cc4C3)n(C[C@@H]3CCO3)c2c1 [Compound I-081]
Emax: 101% | EC50: 7.66 nM

O=C(O)c1ccc2nc(CN3CCc4cc(C(F)(F)F)c(OCc5ccc(OC(F)F)cc5)cc4C3)n(C[C@@H]3CCO3)c2c1 [Compound I-082]
Emax: 103% | EC50: 2.32 nM

O=C(O)c1ccc2nc(CN3CCc4cc(C(F)(F)F)c(OCc5ccc(C(F)(F)F)cc5)cc4C3)n(C[C@@H]3CCO3)c2c1 [Compound I-083]
Emax: 93% | EC50: 21.4 nM

O=C(O)c1ccc2nc(CN3CCc4cc(C(F)(F)F)c(OCc5ccc(OC(F)(F)F)cc5)cc4C3)n(C[C@@H]3CCO3)c2c1 [Compound I-084]
Emax: 106% | EC50: 91.9 nM

Cc1ccc(COc2cc3c(cc2C(F)(F)F)CCN(Cc2nc4ccc(C(=O)O)cc4n2C[C@@H]2CCO2)C3)cc1 [Compound I-085]
Emax: 111% | EC50: 4.47 nM

CS(=O)(=O)c1ccc(COc2cc3c(cc2C(F)(F)F)CCN(Cc2nc4ccc(C(=O)O)cc4n2C[C@@H]2CCO2)C3)cc1 [Compound I-086]
Emax: 106% | EC50: 17.9 nM

O=C(O)c1ccc2nc(CN3CCc4cc(C(F)(F)F)c(OCc5ccccc5-c5ccccc5)cc4C3)n(C[C@@H]3CCO3)c2c1 [Compound I-088]
Emax: 147% | EC50: 7.81 nM

O=C(O)c1ccc2nc(CN3CCc4cc(C(F)(F)F)c(OCc5ccccc5Cl)cc4C3)n(C[C@@H]3CCO3)c2c1 [Compound I-090]
Emax: 106% | EC50: 6.6 nM

O=C(O)c1ccc2nc(CN3CCc4cc(C(F)(F)F)c(OCc5ccc(F)c(F)c5)cc4C3)n(C[C@@H]3CCO3)c2c1 [Compound I-093]
Emax: 111% | EC50: 16.6 nM

O=C(O)c1ccc2nc(CN3CCc4cc(C(F)(F)F)c(OCc5ccc(F)c(F)c5F)cc4C3)n(C[C@@H]3CCO3)c2c1 [Compound I-094]
Emax: 102% | EC50: 28.5 nM

O=C(O)c1ccc2nc(CN3CCc4cc(C(F)(F)F)c(OCc5cc(F)c(F)cc5F)cc4C3)n(C[C@@H]3CCO3)c2c1 [Compound I-095]
Emax: 112% | EC50: 10.5 nM

O=C(O)c1ccc2nc(CN3CCc4cc(C(F)(F)F)c(OCc5ccc(F)cc5Cl)cc4C3)n(C[C@@H]3CCO3)c2c1 [Compound I-097]
Emax: 105% | EC50: 2.42 nM

O=C(O)c1ccc2nc(CN3CCc4cc(C(F)(F)F)c(OCc5ccc(Cl)c(F)c5)cc4C3)n(C[C@@H]3CCO3)c2c1 [Compound I-098]
Emax: 120% | EC50: 10.9 nM

O=C(O)c1ccc2nc(CN3CCc4cc(C(F)(F)F)c(OCc5ccc(Cl)cc5Cl)cc4C3)n(C[C@@H]3CCO3)c2c1 [Compound I-099]
Emax: 114% | EC50: 1.43 nM

O=C(O)c1ccc2nc(CN3CCc4cc(C(F)(F)F)c(OCc5ccc(Cl)cc5C(F)(F)F)cc4C3)n(C[C@@H]3CCO3)c2c1 [Compound I-100]
Emax: 90.7% | EC50: 95.2 nM

O=C(O)c1ccc2nc(CN3CCc4cc(C(F)(F)F)c(OCc5c(F)cc(Cl)cc5F)cc4C3)n(C[C@@H]3CCO3)c2c1 [Compound I-101]
Emax: 113% | EC50: 2.23 nM

O=C(O)c1ccc2nc(CN3CCc4cc(C(F)(F)F)c(OCc5ccc(C6CC6)cc5)cc4C3)n(C[C@@H]3CCO3)c2c1 [Compound I-102]
Emax: 106% | EC50: 5.09 nM

N#Cc1ccc(COc2cc3c(cc2C(F)(F)F)CCN(Cc2nc4ccc(C(=O)O)cc4n2C[C@@H]2CCO2)C3)cc1 [Compound I-103]
Emax: 113% | EC50: 5.6 nM

COc1ccc(COc2cc3c(cc2C(F)(F)F)CCN(Cc2nc4ccc(C(=O)O)cc4n2C[C@@H]2CCO2)C3)cc1 [Compound I-104]
Emax: 102% | EC50: 4.78 nM

O=C(O)c1ccc2nc(CN3CCc4cc(C(F)(F)F)c(OCc5ccc(F)cc5F)cc4C3)n(C[C@@H]3CCO3)c2c1 [Compound I-106]
Emax: 101% | EC50: 6.88 nM

O=C(O)c1ccc2nc(CN3CCc4cc(C(F)(F)F)c(OCc5c(F)cc(F)cc5F)cc4C3)n(C[C@@H]3CCO3)c2c1 [Compound I-107]
Emax: 101% | EC50: 3.5 nM

Cc1cc(C(=O)O)cc2c1nc(CN1CCc3cc(C(F)(F)F)c(OCc4ccc(Cl)cc4F)cc3C1)n2C[C@@H]1CCO1 [Compound I-108]
Emax: 108% | EC50: 8.33 nM

O=C(O)c1ccc2nc(CN3CCc4cc(C(F)(F)F)c(OCc5ccc(Cl)cc5F)nc4C3)n(C[C@@H]3CCO3)c2c1 [Compound I-110]
Emax: 114%

C[C@H]1c2cc(OCc3ccc(C#N)cc3)c(C(F)(F)F)cc2CCN1Cc1nc2ccc(C(=O)O)cc2n1C[C@@H]1CCO1 [Compound I-111]
Emax: 126% | EC50: 2.51 nM

C[C@H]1c2cc(OCc3ccc(C#N)cc3)c(C(F)(F)F)cc2CCN1Cc1nc2c(F)cc(C(=O)O)cc2n1C[C@@H]1CCO1 [Compound I-112]
Emax: 114% | EC50: 1.1 nM

C[C@H]1c2cc(OCc3ccc(C#N)cc3)c(C(F)(F)F)cc2CCN1Cc1nc2ccc(C(=O)O)c(F)c2n1C[C@@H]1CCO1 [Compound I-113]
Emax: 124% | EC50: 1.46 nM

C[C@H]1c2cc(OCc3c(F)cc(Cl)cc3F)c(C(F)(F)F)cc2CCN1Cc1nc2ccc(C(=O)O)cc2n1C[C@@H]1CCO1 [Compound I-114]
Emax: 132% | EC50: 0.604 nM

C[C@H]1c2cc(OCc3c(F)cc(Cl)cc3F)c(C(F)(F)F)cc2CCN1Cc1nc2ccc(C(=O)O)nc2n1C[C@@H]1CCO1 [Compound I-115]
Emax: 124% | EC50: 0.538 nM

C[C@H]1c2cc(OCc3ccc(Cl)cc3Cl)c(C(F)(F)F)cc2CCN1Cc1nc2ccc(C(=O)O)nc2n1C[C@@H]1CCO1 [Compound I-118]
Emax: 113% | EC50: 0.658 nM

COc1cc(C(=O)O)cc2c1nc(CN1CCc3cc(C(F)(F)F)c(OCc4ccc(Cl)cc4F)cc3C1)n2C[C@@H]1CCO1 [Compound I-119]
Emax: 119% | EC50: 0.569 nM
